Measured values taken from ChEMBL document CHEMBL1156285, “Stereochemistry-activity relationship of orally active tetralin S1P agonist prodrugs” (Bioorg Med Chem Lett, 2010).
Calls of active or inactive are those of the source. No cut-off for these calls is given here.

Columns and labels:
[1] = target: T1, Sphingosine kinase 2 (Homo sapiens) (UniProt Q9NRA0); experiment: Induction of human SphK2 phosphorylation; parameters: concentration or dose not given beside the values
T1 sequence (whole entry): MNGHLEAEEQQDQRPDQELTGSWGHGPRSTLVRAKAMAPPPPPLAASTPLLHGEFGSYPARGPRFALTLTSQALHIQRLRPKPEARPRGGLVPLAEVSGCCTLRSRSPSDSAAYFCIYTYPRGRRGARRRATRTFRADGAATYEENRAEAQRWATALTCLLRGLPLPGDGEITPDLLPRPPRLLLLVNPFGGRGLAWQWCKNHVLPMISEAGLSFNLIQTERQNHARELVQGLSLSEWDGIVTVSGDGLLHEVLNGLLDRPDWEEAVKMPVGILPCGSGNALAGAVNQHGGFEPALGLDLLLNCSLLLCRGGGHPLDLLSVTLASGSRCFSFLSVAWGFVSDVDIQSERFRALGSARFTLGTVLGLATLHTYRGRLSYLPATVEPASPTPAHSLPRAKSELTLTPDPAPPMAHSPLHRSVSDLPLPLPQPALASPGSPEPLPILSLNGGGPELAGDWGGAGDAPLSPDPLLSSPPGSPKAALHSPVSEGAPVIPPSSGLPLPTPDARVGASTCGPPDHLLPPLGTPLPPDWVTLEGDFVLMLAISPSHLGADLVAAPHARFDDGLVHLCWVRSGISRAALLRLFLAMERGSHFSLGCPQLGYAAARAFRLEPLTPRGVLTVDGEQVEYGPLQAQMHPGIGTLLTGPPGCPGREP

Mus musculus [2] = species: Mus musculus; experiment: Immunosuppressive activity in mouse assessed as induction of […]; assay type: functional
Mus musculus [3] = experiment: Immunosuppressive activity in mouse assessed as induction of lymphopenia at 1 mg/kg after 1 week; assay type: functional, organism-based; parameters: dose 1 mg/kg
[4] = Clearance in mouse at 1 mg/kg after 1 week; assay type: ADME, organism-based; parameters: dose 1 mg/kg; settings: in vivo
[5] = target: T2, Sphingosine kinase 2 (Mus musculus) (UniProt Q9JIA7); experiment: Induction of mouse SphK2 phosphorylation
T2 sequence (whole entry): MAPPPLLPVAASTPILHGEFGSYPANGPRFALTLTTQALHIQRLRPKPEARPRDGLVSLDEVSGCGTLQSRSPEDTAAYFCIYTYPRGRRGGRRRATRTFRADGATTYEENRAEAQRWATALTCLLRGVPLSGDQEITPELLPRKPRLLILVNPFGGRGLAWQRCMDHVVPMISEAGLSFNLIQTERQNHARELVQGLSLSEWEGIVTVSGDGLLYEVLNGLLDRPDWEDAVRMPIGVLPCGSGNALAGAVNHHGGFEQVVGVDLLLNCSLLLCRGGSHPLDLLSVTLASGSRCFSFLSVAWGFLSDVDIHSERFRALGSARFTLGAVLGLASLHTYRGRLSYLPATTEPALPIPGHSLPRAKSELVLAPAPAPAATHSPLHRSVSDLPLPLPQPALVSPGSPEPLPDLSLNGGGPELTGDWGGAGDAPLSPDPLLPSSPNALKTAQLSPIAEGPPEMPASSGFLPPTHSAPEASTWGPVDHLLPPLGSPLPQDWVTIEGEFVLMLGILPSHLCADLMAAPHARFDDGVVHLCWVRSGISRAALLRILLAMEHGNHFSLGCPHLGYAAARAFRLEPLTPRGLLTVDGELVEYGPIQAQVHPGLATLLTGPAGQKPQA

Mus musculus [6] = experiment: Vd in mouse at 1 mg/kg after 1 week; settings: in vivo, 168 h
Mus musculus [7] = experiment: Oral bioavailability in mouse at 1 mg/kg after 1 week; assay type: ADME, organism-based; settings: in vivo, 168 h
Mus musculus [8] = experiment: Half life in mouse at 1 mg/kg after 1 week; assay type: ADME, organism-based; parameters: dose 1 mg/kg; settings: in vivo, 168 h
Mus musculus [9] = species: Mus musculus; experiment: Immunosuppressive activity in mouse assessed as induction of lymphopenia; assay type: functional
[10] = target: T3, Sphingosine 1-phosphate receptor 4 (Homo sapiens, UniProt O95977); experiment: Agonist activity at human S1P4 receptor assessed as effect on calcium mobilization by Gq dependent whole cell assay; assay type: functional
T3 sequence (O95977 whole entry): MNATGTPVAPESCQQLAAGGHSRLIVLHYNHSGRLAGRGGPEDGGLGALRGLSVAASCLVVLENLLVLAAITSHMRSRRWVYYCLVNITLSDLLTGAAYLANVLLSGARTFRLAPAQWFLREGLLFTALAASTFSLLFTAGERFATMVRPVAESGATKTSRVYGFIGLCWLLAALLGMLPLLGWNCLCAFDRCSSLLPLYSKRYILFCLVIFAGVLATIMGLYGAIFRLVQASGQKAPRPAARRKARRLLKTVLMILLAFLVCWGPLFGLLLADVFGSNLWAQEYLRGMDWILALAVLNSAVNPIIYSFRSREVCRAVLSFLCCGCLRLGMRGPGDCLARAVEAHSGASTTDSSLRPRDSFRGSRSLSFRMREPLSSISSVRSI

[11] = target: T4, Sphingosine 1-phosphate receptor 1 (Homo sapiens, UniProt P21453); experiment: Agonist activity at human S1P1 receptor assessed as effect on calcium mobilization by Gq dependent whole cell assay; assay type: functional
T4 sequence (P21453 whole entry): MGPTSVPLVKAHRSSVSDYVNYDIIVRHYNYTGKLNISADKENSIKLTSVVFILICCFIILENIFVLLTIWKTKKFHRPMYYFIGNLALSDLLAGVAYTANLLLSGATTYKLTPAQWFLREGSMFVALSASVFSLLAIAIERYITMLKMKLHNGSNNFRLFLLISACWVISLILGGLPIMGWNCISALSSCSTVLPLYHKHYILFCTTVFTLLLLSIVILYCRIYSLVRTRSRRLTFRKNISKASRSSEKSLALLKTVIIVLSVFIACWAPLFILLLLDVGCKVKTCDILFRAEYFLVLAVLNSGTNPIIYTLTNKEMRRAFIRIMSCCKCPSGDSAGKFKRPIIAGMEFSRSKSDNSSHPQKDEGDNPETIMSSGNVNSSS

[12] = target: T4, Sphingosine 1-phosphate receptor 1; experiment: Agonist activity at human S1P1 receptor assessed as effect on calcium mobilization by Gi dependent whole cell assay; assay type: functional
[13] = target: Sphingosine 1-phosphate receptor 2 (Homo sapiens, UniProt O95136); experiment: Agonist activity at human S1P2 receptor assessed as effect on calcium mobilization by Gq dependent whole cell assay; assay type: functional
Sphingosine 1-phosphate receptor 2, sequence (O95136 whole entry): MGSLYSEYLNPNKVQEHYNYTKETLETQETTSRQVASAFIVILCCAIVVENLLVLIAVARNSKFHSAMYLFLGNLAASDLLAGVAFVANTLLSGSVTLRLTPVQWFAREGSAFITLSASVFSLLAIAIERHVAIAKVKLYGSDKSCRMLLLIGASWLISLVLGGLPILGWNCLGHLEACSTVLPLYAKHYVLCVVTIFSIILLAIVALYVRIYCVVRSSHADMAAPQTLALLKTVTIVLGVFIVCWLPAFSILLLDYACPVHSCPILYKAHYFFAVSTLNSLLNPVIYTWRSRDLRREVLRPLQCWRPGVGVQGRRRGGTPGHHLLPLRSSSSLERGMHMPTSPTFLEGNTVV

[14] = target: T5, Sphingosine 1-phosphate receptor 3 (Homo sapiens, UniProt Q99500); experiment: Agonist activity at human S1P3 receptor assessed as effect on calcium mobilization by Gq dependent whole cell assay; assay type: functional
T5 sequence (Q99500 whole entry): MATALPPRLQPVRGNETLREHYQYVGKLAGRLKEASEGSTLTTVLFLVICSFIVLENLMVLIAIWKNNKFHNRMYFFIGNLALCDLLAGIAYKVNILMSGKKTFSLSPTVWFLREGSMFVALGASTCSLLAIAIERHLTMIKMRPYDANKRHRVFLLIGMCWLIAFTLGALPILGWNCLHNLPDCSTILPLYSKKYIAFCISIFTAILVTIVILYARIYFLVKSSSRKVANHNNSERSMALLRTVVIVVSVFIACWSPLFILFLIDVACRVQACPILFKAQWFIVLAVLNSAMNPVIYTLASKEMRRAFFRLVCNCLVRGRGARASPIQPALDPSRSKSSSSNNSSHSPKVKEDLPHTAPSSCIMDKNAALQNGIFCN

[15] = target: Sphingosine 1-phosphate receptor 5 (Homo sapiens, UniProt Q9H228); experiment: Agonist activity at human S1P5 receptor assessed as effect on calcium mobilization by Gq dependent whole cell assay; assay type: functional
Sphingosine 1-phosphate receptor 5, sequence (Q9H228 whole entry): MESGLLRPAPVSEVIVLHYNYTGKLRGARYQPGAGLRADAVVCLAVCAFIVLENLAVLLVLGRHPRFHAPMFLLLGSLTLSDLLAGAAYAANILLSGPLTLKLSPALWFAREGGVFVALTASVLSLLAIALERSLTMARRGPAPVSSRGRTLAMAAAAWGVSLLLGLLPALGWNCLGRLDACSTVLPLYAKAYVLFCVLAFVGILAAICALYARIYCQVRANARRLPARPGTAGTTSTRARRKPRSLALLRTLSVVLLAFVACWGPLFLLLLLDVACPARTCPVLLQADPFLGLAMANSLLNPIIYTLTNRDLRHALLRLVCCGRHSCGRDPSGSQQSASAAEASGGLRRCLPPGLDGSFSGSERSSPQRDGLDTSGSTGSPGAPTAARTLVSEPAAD

[16] = target: T5, Sphingosine 1-phosphate receptor 3; experiment: Agonist activity at human S1P3 receptor assessed as effect on calcium mobilization by Gi dependent whole cell assay; assay type: functional
Mus musculus [17] = experiment: Oral bioavailability in mouse at 2 mg/kg after 72 hrs; assay type: ADME, organism-based; settings: in vivo
Mus musculus [18] = experiment: Half life in mouse at 2 mg/kg after 72 hrs; assay type: ADME, organism-based; parameters: dose 2 mg/kg; settings: in vivo
Mus musculus [19] = experiment: Immunosuppressive activity in mouse assessed as induction of lymphopenia at 2 mg/kg after 72 hrs; assay type: functional, organism-based; parameters: dose 2 mg/kg

Row | Activity [1] | EC50 [10] | EC50 [11] | EC50 [12] | EC50 [14] | EC50 [16] | Structure (SMILES) | ED50 (Mus musculus [9]) | further results
1 | 77% |  |  |  |  |  | CCCCCCCCc1ccc2c(c1)CC[C@H]([C@@](C)(N)CO)C2 | 0.1 mg/kg | Activity (Mus musculus [2]): 63%; Activity (Mus musculus [3]): Active; clearance [4]: 5.5 mL/min/kg; Activity [5]: 90%; Vd (Mus musculus [6]): 16 L/kg; F (Mus musculus [7]): 55%; t1/2 (Mus musculus [8]): 36 h
2 |  | 22.2 nM |  |  |  |  | CCCCCCCCc1ccc(CC[C@](N)(CO)COP(=O)(O)O)cc1 [FTY720-P] |  | 
3 |  | 41.4 nM | 133 nM | 0.344 nM | 25.7 nM | > 5000 nM | CCCCCCCCc1ccc2c(c1)CC[C@@H](C(N)(CO)COP(=O)(O)O)C2 (stereo in doubt) |  | EC50 [13]: > 5000 nM; EC50 [15]: 33 nM
4 | 76% |  |  |  |  |  | CCCCCCCCc1ccc(CCC(N)(CO)CO)cc1 [FINGOLIMOD] | 0.03 mg/kg | Activity [5]: 87%
5 | 0% |  |  |  |  |  | CCCCCCCCc1ccc2c(c1)CC[C@H]([C@](C)(N)CO)C2 | > 5 mg/kg | 
6 |  | 137 nM |  |  |  |  | CCCCCCCCc1ccc(CC[C@@](N)(CO)COP(=O)(O)O)cc1 |  | 
7 |  | 16 nM | 1.79 nM | 0.018 nM | 97.4 nM | 0.286 nM | CCCCCCCCc1ccc2c(c1)CC[C@H]([C@@](C)(N)COP(=O)(O)O)C2 |  | EC50 [13]: > 5000 nM; EC50 [15]: 1.49 nM
8 | 9% |  |  |  |  |  | CCCCCCCCc1ccc2c(c1)CC[C@@H](C(N)(CO)CO)C2 | 0.2 mg/kg | Activity (Mus musculus [2]): 3%; Activity [5]: 4%; F (Mus musculus [17]): 55%; t1/2 (Mus musculus [18]): 16 h; Activity (Mus musculus [19]): Active
9 | 38% |  |  |  |  |  | CCCCCCCCc1ccc2c(c1)CC[C@@H]([C@@](C)(N)CO)C2 | 0.8 mg/kg | 
10 |  | 5.39 nM | 1.95 nM | 0.077 nM | 18.7 nM | 0.215 nM | CCCCCCCCc1ccc2c(c1)CC[C@@H](C(N)(CO)COP(=O)(O)O)C2 (single isomer, unassigned; isomer 1) |  | EC50 [13]: > 5000 nM; EC50 [15]: 0.33 nM
11 | 0% |  |  |  |  |  | CCCCCCCCc1ccc2c(c1)CC[C@@H]([C@](C)(N)CO)C2 |  | 
12 | 3% |  |  |  |  |  | CCCCCCCCc1ccc2c(c1)CC[C@H](C(N)(CO)CO)C2 | 3.8 mg/kg | 
13 |  |  | 5.62 nM | 0.088 nM | 38.2 nM | 0.15 nM | CCCCCCCCc1ccc2c(c1)CC[C@@H]([C@@](C)(N)COP(=O)(O)O)C2 |  | 
14 |  |  |  | 19.7 nM |  | > 5000 nM | CCCCCCCCc1ccc2c(c1)CC[C@@H]([C@](C)(N)COP(=O)(O)O)C2 |  | 
15 |  |  | > 5000 nM | 13.6 nM | 922 nM | > 5000 nM | CCCCCCCCc1ccc2c(c1)CC[C@H]([C@](C)(N)COP(=O)(O)O)C2 |  | 

Row | Structure (SMILES) | Activity [1] | EC50 [10] | EC50 [11] | EC50 [12] | EC50 [14] | EC50 [16] | ED50 (Mus musculus [9]) | further results
16 | CCCCCCCCCCCCC/C=C/[C@@H](O)[C@@H](N)COP(=O)(O)O |  |  |  | 0.027 nM |  | 0.449 nM |  | 
